How the values were obtained:
AuroraA-TPX2 = molecular target: T1, AuroraA-TPX2 (Homo sapiens, UniProt O14965); test: AuroraA-TPX2 Homogeneous Time Resolved Fluorescent (HTRF) kinase assay; assay type: biochemical; settings: average; read-out: AurA_IC50_IP (uM Avg)
T1 construct: 20 μL of AuroraA-TPX2 KD GST for a final volume of about 41 μL; GST
T1 sequence (O14965 133-383 limits assumed): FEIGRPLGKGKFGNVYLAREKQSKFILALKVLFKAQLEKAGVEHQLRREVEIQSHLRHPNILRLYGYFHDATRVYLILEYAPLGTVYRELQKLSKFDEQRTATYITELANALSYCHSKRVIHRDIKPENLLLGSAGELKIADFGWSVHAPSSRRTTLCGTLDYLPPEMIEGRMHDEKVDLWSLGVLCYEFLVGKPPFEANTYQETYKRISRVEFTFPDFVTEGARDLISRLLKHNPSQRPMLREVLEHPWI
T1 sequence (Q9ULW0 1-43 partner limits assumed): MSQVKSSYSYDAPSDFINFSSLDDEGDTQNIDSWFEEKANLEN
How it was run: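 HTRF read-out (Eu 615 nm to APC 655 nm) of phosphorylated biotin-PLK, detected with 0.02 nM europium anti-phosphoPLK antibody and 0.0005 mg/mL SA-APC after overnight equilibration.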

AuroraB = molecular target: T2, AuroraB (Homo sapiens, UniProt Q96GD4); test: AuroraB Homogeneous Time Resolved Fluorescent (HTRF) kinase assay; assay type: biochemical; settings: average; read-out: AurB_IC50_IP (uM Avg)
T2 construct: 20 μL of AuroraB FL H is for a final volume of 41 μL; His
How it was run: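 Full-length His-tagged kinase phosphorylates biotinylated Histone H3 (0.1 μM final) with ATP in pH 7.5 HEPES containing MgCl, MnCl, DTT and BSA for about 90 min. EDTA-containing detection mix with SA-APC and Eu-anti-phosphoHistone H3 then equilibrated about 60 min; HTRF read with 320 nm excitation, emissions 615/655 nm.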

T2 sequence (Q96GD4 whole entry): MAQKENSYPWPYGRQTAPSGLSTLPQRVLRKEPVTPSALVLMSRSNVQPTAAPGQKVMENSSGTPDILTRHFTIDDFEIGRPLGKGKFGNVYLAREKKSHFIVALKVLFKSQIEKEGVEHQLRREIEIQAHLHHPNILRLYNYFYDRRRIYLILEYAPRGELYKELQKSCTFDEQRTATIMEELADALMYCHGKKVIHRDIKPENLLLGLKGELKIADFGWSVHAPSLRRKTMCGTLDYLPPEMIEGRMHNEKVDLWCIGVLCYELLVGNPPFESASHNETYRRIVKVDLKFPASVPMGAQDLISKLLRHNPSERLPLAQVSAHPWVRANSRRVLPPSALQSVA

Compound	IC50 (AuroraA-TPX2) [µM]	IC50 (AuroraB) [µM]
COc1cnc2c(Oc3ccc(Cc4nnc(-c5ccc(C)cc5)c5ccccc45)cc3)ccnc2c1 [compound 126, 3-(methyloxy)-8-((4-((4-(4-methylphenyl)-1-phthalazinyl)methyl)phenyl)oxy)-1,5-naphthyridine]	0.388	0.017
COc1cc2nccc(Oc3ccc(Nc4nnc(-c5cccc(OC)n5)c5ccccc45)cc3)c2cn1 [compound 131, N-(4-((7-(methyloxy)-1,6-naphthyridin-4-yl)oxy)phenyl)-4-(6-(methyloxy)-2-pyridinyl)-1-phthalazinamine]	0.019	0.003
COc1cc2nccc(Oc3ccc(Nc4nnc(-c5ccccc5)c5ccccc45)cc3)c2cc1OC [compound 90, N-(4-((6,7-bis(methyloxy)-4-quinolinyl)oxy)phenyl)-4-phenyl-1-phthalazinamine]	0.019	0.025
Clc1ccc(-c2nnc(Nc3ccc(Oc4ccnc5cc(OCc6ccccc6)cnc45)cc3)c3ccccc23)cc1 [compound 610]	0.047	0.033
COc1cnc2c(Oc3ccc(Nc4nnc(-c5cc(CO)cs5)c5ccccc45)cc3)ccnc2c1 [Example 407, (5-(4-(4-(7-Methoxy-1,5-naphthyridin-4-yloxy)phenylamino)phthalazin-1-yl)thiophen-3-yl)methanol]	0.016	0.004
c1ccc(-c2nnc(Nc3ccc(Oc4ccnc5cc(-c6ccoc6)ccc45)cc3)c3ccccc23)cc1 [compound 343, N-(4-(7-(furan-3-yl)quinolin-4-yloxy)phenyl)-4-phenylphthalazin-1-amine]	0.024	0.008
COc1cnc2c(Oc3ccc(Nc4nnc(-c5cccc(Cl)c5)c5ccccc45)cc3)ccnc2c1 [compound 219, 4-(3-chlorophenyl)-N-(4-((7-(methyloxy)-1,5-naphthyridin-4-yl)oxy)phenyl)-1-phthalazinamine]	0.051	0.01
Clc1ccc(-c2nnc(Nc3ccc(Oc4ccnc5ccoc45)cc3)c3ccccc23)cc1 [compound 483]	0.583	0.013
COc1cnc2c(Oc3ccc(Nc4nnc(-c5ccnc(Cl)c5)c5ccccc45)cc3)ccnc2c1 [compound 283, 4-(2-chloro-4-pyridinyl)-N-(4-((7-(methyloxy)-1,5-naphthyridin-4-yl)oxy)phenyl)-1-phthalazinamine]	0.1	0.01
Clc1ccc(-c2nnc(Nc3ccc(Sc4ccnc5[nH]ncc45)cc3)c3ccccc23)cc1 [compound 359, N-(4-(1H-pyrazolo[3,4-b]pyridin-4-ylthio)phenyl)-4-(4-chlorophenyl)phthalazin-1-amine]	0.012	0.017
COc1cc2nccc(Oc3ccc(Nc4nnc(-c5ccc(C(C)(C)C)cc5)c5ccccc45)cc3)c2cc1OC [compound 106, N-(4-((6,7-bis(methyloxy)-4-quinolinyl)oxy)phenyl)-4-(4-(1,1-dimethylethyl)phenyl)-1-phthalazinamine]	0.01	0.038
COc1cnc2c(Oc3ccc(Nc4nnc(-c5ccc(Cl)cc5)c5ccccc45)cc3F)ccnc2c1 [compound 284, 4-(4-chlorophenyl)-N-(3-fluoro-4-((7-(methyloxy)-1,5-naphthyridin-4-yl)oxy)phenyl)-1-phthalazinamine]	0.019	0.007
COc1cnc2c(Oc3ccc(Nc4nnc(-c5cc(CF)cs5)c5ccccc45)cc3)ccnc2c1 [Example 408, 4-(4-(Fluoromethyl)thiophen-2-yl)-N-(4-(7-methoxy-1,5-naphthyridin-4-yloxy)phenyl)phthalazin-1-amine]	0.024	0.009
Cc1csc(-c2nnc(Nc3ccc(Sc4ccnc5cc(OC(F)(F)F)ccc45)cc3)c3ccccc23)c1 [compound 499]	0.277	0.363
COc1ccc2nccc(Oc3ccc(Nc4nnc(-c5ccc(Cl)cc5)c5ccccc45)cc3)c2c1 [compound 239, 4-(4-chlorophenyl)-N-(4-((6-(methyloxy)-4-quinolinyl)oxy)phenyl)-1-phthalazinamine]	0.12	0.008
COc1cnc2c(Oc3ccc(Nc4nnc(N5CCSCC5)c5ccccc45)cc3)ccnc2c1 [compound 337, N-(4-(7-methoxy-1,5-naphthyridin-4-yloxy)phenyl)-4-thiomorpholinophthalazin-1-amine]	0.076	0.015
Cc1ccc(-c2nnc(Nc3ccc(Oc4ccnc5ccsc45)cc3)c3ccccc23)cc1 [compound 252, 4-(4-methylphenyl)-N-(4-(thieno[3,2-b]pyridin-7-yloxy)phenyl)-1-phthalazinamine]	0.077	0.005
Clc1ccc(-c2nnc(Nc3ccc(Sc4ccnc5ccsc45)cc3)c3ccccc23)cc1 [compound 332, 4-(4-chlorophenyl)-N-(4-(thieno[3,2-b]pyridin-7-ylthio)phenyl)-1-phthalazinamine]	0.016	0.003
COc1cc2nccc(Oc3ccc(Nc4nnc(-c5cccc(C)n5)c5ccccc45)cn3)c2cn1 [compound 127, N-(6-((7-(methyloxy)-1,6-naphthyridin-4-yl)oxy)-3-pyridinyl)-4-(6-methyl-2-pyridinyl)-1-phthalazinamine]	0.241	0.009
COc1cnc2c(Oc3ccc(Nc4nnc(-c5ccc([S+](C)[O-])cc5)c5ccccc45)cc3)ccnc2c1 (stereo not drawn) [compound 262, N-(4-((7-(methyloxy)-1,5-naphthyridin-4-yl)oxy)phenyl)-4-(4-(methylsulfinyl)phenyl)-1-phthalazinamine]	0.102	0.006

The remaining lines, values ahead:

IC50 (AuroraA-TPX2) [µM]	IC50 (AuroraB) [µM]	Compound
0.029	0.058	COc1cnc2c(Sc3ccc(Nc4nnc(-c5ccc6occc6c5)c5ccccc45)cc3)ccnc2c1 [compound 501]
0.393	0.025	COc1cnc2c(Sc3ccc(Nc4nnc(C5CC5)c5ccccc45)cc3)ccnc2c1 [compound 541]
3.43	0.045	COc1cnc2c(Sc3ccc(Nc4nnc(N5CCC(N6CCCC6)CC5)c5ccccc45)cc3)ccnc2c1 [compound 538]
0.045	0.03	COCCNc1nnc(Nc2ccc(Sc3ccnc4cc(OC)cnc34)cc2)c2ccccc12 [compound 533]
0.093	0.099	CCCN(C)c1nnc(Nc2ccc(Sc3ccnc4cc(OC)cnc34)cc2)c2ccccc12 [compound 524]
0.036	0.138	COc1cnc2c(Sc3ccc(Nc4nnc(N5CCC(Cl)CC5)c5ccccc45)cc3)ccnc2c1 [compound 527]
0.033	0.032	CCc1cc(-c2ccc(C)cc2)nnc1Nc1ccc(Sc2ccnc3cc(OC)cnc23)cc1 [compound 322, 4-ethyl-N-(4-((7-(methyloxy)-1,5-naphthyridin-4-yl)thio)phenyl)-6-(4-methylphenyl)-3-pyridazinamine]
0.036	0.012	COc1cnc2c(Sc3ccc(Nc4nnc(-c5ccc(F)cc5)c5ccccc45)cc3)ccnc2c1 [compound 356, 4-(4-fluorophenyl)-N-(4-(7-methoxy-1,5-naphthyridin-4-ylthio)phenyl)phthalazin-1-amine]
0.036	0.002	COc1cnc2c(Oc3ccc(Nc4nnc(-c5ccc(S(C)(=O)=O)cc5)c5ccccc45)cc3)ccnc2c1 [compound 263, N-(4-((7-(methyloxy)-1,5-naphthyridin-4-yl)oxy)phenyl)-4-(4-(methylsulfonyl)phenyl)-1-phthalazinamine]
> 25	> 25	COc1cnc2c(Oc3ccc(Nc4nnc(-c5ccc(Cl)cc5)c5c4CCC5)cc3)ccnc2c1 [compound 411]
0.064	0.003	COc1cnc2c(Oc3ccc(Nc4nnc(-c5ccc(C)nc5)c5ccccc45)cc3)ccnc2c1 [compound 268, N-(4-((7-(methyloxy)-1,5-naphthyridin-4-yl)oxy)phenyl)-4-(6-methyl-3-pyridinyl)-1-phthalazinamine]
0.144	0.011	COc1ccc2nccc(Sc3ccc(Nc4nnc(-c5ccccc5)c5ccccc45)cc3)c2c1 [compound 292, N-(4-((6-(methyloxy)-4-quinolinyl)thio)phenyl)-4-phenyl-1-phthalazinamine]
0.501	0.12	CCOc1nnc(Nc2ccc(Sc3ccnc4cc(OC)cnc34)cc2)c2ccccc12 [compound 512]
0.047	0.004	COc1cnc2c(Oc3ccc(Nc4nnc(-c5ccc(F)cc5)c5ccccc45)cc3)ccnc2c1 [compound 220, 4-(4-fluorophenyl)-N-(4-((7-(methyloxy)-1,5-naphthyridin-4-yl)oxy)phenyl)-1-phthalazinamine]
0.09	0.031	COc1cnc2c(Sc3ccc(Nc4nnc(-c5ccccc5)c5ccccc45)cn3)ccnc2c1 [compound 413]
0.231	0.03	COc1cnc2c(Sc3ccc(Nc4nnc(OCC(F)(F)F)c5ccccc45)cc3)ccnc2c1 [compound 513]

Source: patent publication US8557816B2, “Aurora kinase modulators and method of use” (Amgen Inc., priority 2007, dated 2013)
